Eight molecules from patent US9969688B2, “Roflumilast prodrugs” (HISAMITSU PHARMACEUTICAL CO., INC., priority 2014, dated 2018) can be followed below.

Data set [1] is described as follows: Evaluation test of skin permeability (Franz diffusion cell). It is filed as in vitro ADME. As to conditions: hairless mouse skin; for Jmax (maximum skin permeation rate) / Cumulative Amount of Permeation for 24 hours: 1 w/w % in dimethyl sulfoxide, 100 μL, 32° C. The protocol: Skin was excised from the back of a hairless mouse and the section of the skin was placed in a Franz diffusion cell (glass cell) so that a solution of each of test compounds (compounds of Examples, Comparative Example, or Reference Examples) was contacted with the epidermal side of the section of the skin (applied area: 1 cm^2). Phosphate buffered physiological saline (PBS) was used as a flow solution. The flow rate was set to 5 mL/hour and the temperature of thermoregulated bath was set to 32° C. Next, dimethyl sulfoxide was added to achieve the concentration of the test compound of 1 w/w % and the resultant was stirred thoroughly to prepare a solution of the test compound. The donor chamber of the Franz diffusion cell was charged with 100 μL of the resulting solution of the test compound. The flow solution was sampled every 2 hours until 24 hours after the charge of the test compound solution. The flow solutions sampled every 2 hours were diluted two-fold by adding acetonitrile and the diluted solution was centrifuged to give supernatants as an HPLC analytical sample. Each of the resulting analytical samples was analyzed by high performance liquid chromatography to calculate the maximum skin permeation rate (Jmax) and the cumulative amount of permeation for 24 hours. Roflumilast was used in Comparative Example 1.

Data set [2] in a line: Evaluation test of water solubility (saturated solubility). It is filed as physicochemical. Particulars: phosphate buffer (pH 7); for solubility at 30 min: aqueous buffer, thermodynamic from solid, ultrasonicated 30 minutes. The protocol:
An excessive amount of a test compound was added to 10 mL of phosphate buffer (pH 7) and the resultant was ultrasonicated for 30 minutes. The resulting suspension was filtered and 0.5 mL of acetonitrile was added to 0.5 mL of the filtrate to obtain a test solution. The concentration of the test compound in the test solution was determined by high performance liquid chromatography to calculate the saturated solubility. Roflumilast was used in Comparative Example 1.

In data set [3] the test system is human liver enzyme fraction. As to the kind of experiment: In vitro metabolism test (metabolic rate into roflumilast). It is filed as in vitro ADME. Particulars: treated with human liver enzyme fractions. How it is done: A human liver enzyme fraction was added to 100 mmol/L Tris-HCl buffer containing coenzymes (NADPH-producing) so as to achieve the concentration of 0.5 mg protein/mL and the resultant was pre-incubated at 37° C. for 5 minutes. A test compound was added to this solution so as to achieve the concentration of 0.1 μmol/L and the resultant was incubated at 37° C. for an hour. The reaction was then stopped by adding water-cooled acetonitrile. The resulting solution was filtered and then quantified by using LC-MS/MS to calculate the metabolic rate (%) into roflumilast. It is noted that “with heat treatment” in Table 1 means using a human liver enzyme fraction subjected to heat treatment before adding to thereby inactivate a metabolic enzyme therein.
Numerical values in Table 1 represent metabolic rates (%) into rofiumilast. […] Roflumilast was not produced when metabolic enzymes were inactivated by heat treatments prior to using the human liver enzyme fractions.

SMILES strings stand for the structures. ≈ marks a conversion by molar mass, not a printed value.

For the molecule `O=C(Nc1c(Cl)cncc1Cl)c1ccc(OC(F)F)c(OCC2CC2)c1` [Comparative Example 1, N-(3,5-dichloropyrid-4-yl)-3-cyclopropylmethoxy-4-difluoromethoxybenzamide, reference compound], in data set [1], the “Jmax (maximum skin permeation rate)” value is on record as 0.0 μg/cm^2/hr and the “Cumulative Amount of Permeation for 24 hours” value (from here on “Cumulative Amount”) was 0.0 μg/cm^2. Also, the “skin permeability (in words)” value in data set [1] (up to 24 hours) is on record as “no skin permeability even after 24 hours”. In addition, in data set [2], the solubility – broadly, how much of the substance goes into solution per volume – at 30 min was 0.373 µg/mL (≈ 0.925 µM) and the “Ratio to Roflumilast (saturated solubility)” value (“Ratio to Roflumilast” below) was determined as 1.
As to `N#CCN(C(=O)c1ccc(OC(F)F)c(OCC2CC2)c1)c1c(Cl)cncc1Cl` [Example 1, N-cyanomethyl-N-(3,5-dichloropyrid-4-yl)-3-cyclopropylmethoxy-4-difluoromethoxybenzamide], in data set [1], the “Jmax (maximum skin permeation rate)” value came to 1.2 μg/cm^2/hr and the “Cumulative Amount” value was 12.1 μg/cm^2. Further, in data set [2], the solubility at 30 min worked out at 1.64 µg/mL (≈ 3.72 µM) and the “Ratio to Roflumilast” value was found to be 4.4.
Turning to `O=C(c1ccc(OC(F)F)c(OCC2CC2)c1)N(CCO)c1c(Cl)cncc1Cl` [Example 2, N-(3,5-dichloropyrid-4-yl)-N-(2-hydroxyethyl)-3-cyclopropylmethoxy-4-difluoromethoxybenzamide], in data set [1], the “Jmax (maximum skin permeation rate)” value was 10.7 μg/cm^2/hr and the “Cumulative Amount” value was found to be 157.7 μg/cm^2. For the same molecule, in data set [2], the solubility at 30 min was 12.5 µg/mL (≈ 27.9 µM) and the “Ratio to Roflumilast” value stood at 33.4.
The corresponding values for `CN(C(=O)c1ccc(OC(F)F)c(OCC2CC2)c1)c1c(Cl)cncc1Cl` [Example 3, N-(3,5-dichloropyrid-4-yl)-N-methyl-3-cyclopropylmethoxy-4-difluoromethoxybenzamide] are 3.2 μg/cm^2/hr, 51.0 μg/cm^2, 9.7 µg/mL (≈ 23.2 µM) and 26.0.
On to `O=C(c1ccc(OC(F)F)c(OCC2CC2)c1)N(CCCO)c1c(Cl)cncc1Cl` [Example 5, N-(3,5-dichloropyrid-4-yl)-N-(3-hydroxypropan-1-yl)-3-cyclopropylmethoxy-4-difluoromethoxybenzamide], for which, in data set [1], the “Jmax (maximum skin permeation rate)” value amounted to 8.5 μg/cm^2/hr and the “Cumulative Amount” value is on record as 163.5 μg/cm^2.
The corresponding values for `COCN(C(=O)c1ccc(OC(F)F)c(OCC2CC2)c1)c1c(Cl)cncc1Cl` [Example 6, N-(3,5-dichloropyrid-4-yl)-N-methoxymethyl-3-cyclopropylmethoxy-4-difluoromethoxybenzamide] are 1.2 μg/cm^2/hr and 17.6 μg/cm^2.
With `NC(=O)CN(C(=O)c1ccc(OC(F)F)c(OCC2CC2)c1)c1c(Cl)cncc1Cl` [Reference Example 1, N-carbamoylmethyl-N-(3,5-dichloropyrid-4-yl)-3-cyclopropylmethoxy-4-difluoromethoxybenzamide, reference compound], the “production of roflumilast by human liver enzyme fractions (in words)” value in data set [3] is recorded as “did not produce roflumilast”. Moreover, in data set [1], the “Jmax (maximum skin permeation rate)” value is recorded as 0.9 μg/cm^2/hr and the “Cumulative Amount” value worked out at 7.2 μg/cm^2. In data set [2], the solubility at 30 min was 16.6 µg/mL (≈ 36 µM) and the “Ratio to Roflumilast” value came out at 44.5.
On to `O=C(O)CN(C(=O)c1ccc(OC(F)F)c(OCC2CC2)c1)c1c(Cl)cncc1Cl` [Reference Example 2, N-carboxymethyl-N-(3,5-dichloropyrid-4-yl)-3-cyclopropylmethoxy-4-difluoromethoxybenzamide, reference compound], for which the “production of roflumilast by human liver enzyme fractions (in words)” value in data set [3] is “did not produce roflumilast”. In data set [1], the “Jmax (maximum skin permeation rate)” value stood at 9.5 μg/cm^2/hr and the “Cumulative Amount” value stood at 56.9 μg/cm^2. Moreover, in data set [2], the solubility at 30 min was 612 µg/mL (≈ 1330 µM) and the “Ratio to Roflumilast” value is listed as 1640.2.
